Patent publication US8263644B2, “Cytotoxic xanthone compounds” (Bristol-Myers Squibb Company, priority 2007, dated 2012)
In brackets after ≈: the same amount, converted by molar mass. Read-outs that look alike come from different tables or passages of the source.

Assays:
p388 mouse leukemia = details: cited from earlier work
various tumor cell lines = details: cited from earlier work
HCT-116 = test: in vitro cytotoxicity, tumor cell line HCT-116; format: cell-based; details: Homo sapiens
Method: (§1) General Experimental Procedures. NMR spectra were obtained on a Bruker DRX 500 MHz spectrometer, equipped with a 5-mm TXI cryoprobe. Proton and carbon chemical shifts are reported in ppm relative to DMSO at δH 2.49 and δC 39.6. LC-NMR on an enriched psoroxanthin (4) sample was conducted with a Varian Inova 600 MHz instrument, using a YMC ODS-AQ (C18) column, 4.6×150 mm, 3μ and mobile phase water-acetonitrile 7:3, isocratic, 1.2 ml/min flow rate. Low-resolution MS and MS/MS measurements were performed by +νe ESI on a Thermo Scientific Finnigan SSQ7000 (single quadrupole MS), TSQ7000 (triple quadrupole MS), or LCQ Classic (ion trap MS). High-resolution MS data were determined by HR +νe ESI on a Thermo Scientific Finnigan MAT900 (magnetic sector MS, polypropylene glycol reference) or Orbitrap (hybrid ion trap-FTICR MS). IR spectra were recorded with a Perkin-Elmer System 2000 FT-IR instrument (thin film-NaCl). UV spectra were obtained using a Hewlett-Packard 8452A diode array spectrophotometer. Sephadex LH-20 (Pharmacia Biotech) and LiChroprep Si 60, 25-40 μm (EM Separations) were used for column chromatography. HPLC(C18) conditions: Analytical: Agilent HP-1100, Waters corp. […]
(§2) The SOS active compounds 1 and 4 were evaluated for in vitro cytotoxicity in a variety of tumor cell lines. […]

[1] = tested on: Escherichia coli SOS chromotest; test: Escherichia coli SOS chromotest (TLC/HPLC biogram); format: cell-based; details: E. coli SOS chromotest
From the text: The crude extracts as received were subjected to a modified “Kupchan” liquid-liquid partitioning sequence, (Kupchan, S. M., Britton, R. W., Ziegler, M. F., Sigel, C. W.; J. Org. Chem., 1973, 38, 178-179.), followed by gel partition chromatography (Sephadex LH-20) and/or Silica gel vacuum liquid chromatography. The fractionation was guided initially by TLC-bioautography using the Escherichia coli SOS chromotest assay. ((a) Quillardet, P.; Huisman, O.; D'Ari, R.; Hofnung, M. Proc. Natl. Acad. Sci. U.S.A. 1982, 79, 5971-5975. (b) Mamber, S. W.; Okasinski, W. G.; Pinter, C. D.; Tunac, J. B. Mutat. Res., 1986, 171, 83-90.). More precise localization of the peak of SOS activity was later made possible using HPLC biogram methodology. ((a) Fura, A.; Shu, Y.-Z.; Zhu, M.; Hanson, R. L.; Roongta, V.; Humphreys, W. G. J. Med. Chem. 2004, 47, 4339-4351. (b) Hook, D. J., More, C. F., Yacobucci, J. J., Dubay, G., O'Connor, S.; J. Chromatogr., 1987, 385, 99-108.). In this manner, analytical HPLC was used to further fractionate the SOS-active sample into 96-deep-well plates. […]
General Experimental Procedures. […] High-resolution MS data were determined by HR +νe ESI on a Thermo Scientific Finnigan MAT900 (magnetic sector MS, polypropylene glycol reference) or Orbitrap (hybrid ion trap-FTICR MS). IR spectra were recorded with a Perkin-Elmer System 2000 FT-IR instrument (thin film-NaCl). […]

A2780 = test: in vitro cytotoxicity, tumor cell line A2780; format: cell-based; details: Homo sapiens
Method: as §1, §2

6-cell line panel = test: cytotoxicity in a 6-cell line panel; format: cell-based; details: read-out: mean IC50, cytotoxicity
Method: (§3) In particular there was a clear in vitro cytotoxicity observed against ABAE cells (bovine endothelial cell line, 0.03 μg/ml).
as §1

SKBR3 = test: in vitro cytotoxicity, tumor cell line SKBR3; format: cell-based; details: Homo sapiens, SK-BR-3, read-out: Cytotoxicity IC50
Method: as §1, §2

[2] = tested on: ABAE cells (bovine endothelial cell line); test: in vitro cytotoxicity, ABAE bovine endothelial cells; format: cell-based; details: versus the tumor cell lines
Method: as §3
as §1, with “corp. X-Terra […] (C18) column, 4.6×150 mm; mobile phase: 0.01 N potassium phosphate buffer pH 3.5-acetonitrile gradient, flow rate 1.2 ml/min. UV 254 nm (Hook, D. J., More, C. F., Yacobucci, J. J., Dubay, G., O'Connor, S.; J. Chromatogr., 1987, 385, 99-108.) Preparative: Beckman System Gold workstation, YMC ODS-A 5μ (C18) column, 20×100 mm. For TLC biogram (SOS) analyses, Silica gel plates (Analtech, 0.25 mm) with chloroform-methanol mixtures (i.e. 95:5 v/v) as the mobile phase were used. For HPLC biogram (SOS) analyses, fractions were collected into Beckman 96-deepwell plates using a Gilson 215 liquid handler and dried under nitrogen stream prior to bioassay.” for “corp.”
as §2

[3] = as above; format: cell-based; details: bovine, ABAE endothelial cells; ABAE cell line
Method: as §3
as §1, with “corp. X-Terra […] (C18) column, 4.6×150 mm; mobile phase: 0.01 N potassium phosphate buffer pH 3.5-acetonitrile gradient, flow rate 1.2 ml/min. UV 254 nm (Hook, D. J., More, C. F., Yacobucci, J. J., Dubay, G., O'Connor, S.; J. Chromatogr., 1987, 385, 99-108.) Preparative: Beckman System Gold workstation, YMC ODS-A 5μ (C18) column, 20×100 mm. For TLC biogram (SOS) analyses, Silica gel plates (Analtech, 0.25 mm) with chloroform-methanol mixtures (i.e. 95:5 v/v) as the mobile phase were used. For HPLC biogram (SOS) analyses, fractions were collected into Beckman 96-deepwell plates using a Gilson 215 liquid handler and dried under nitrogen stream prior to bioassay.” for “corp.”
as §2

SMILES | activity in vivo against p388 mouse leukemia (p388 mouse leukemia) | activity in vitro against various tumor cell lines (various tumor cell lines) | IC50 (HCT-116; HCT-116, read-out: Cytotoxicity IC50) [nM] | SOS activity [1] | IC50 (A2780; A2780, read-out: Cytotoxicity IC50) [nM] | IC50 (6-cell line panel) [µg/mL] | IC50 (SKBR3) [nM] | selectivity against bovine endothelial cells (ABAE) [2] | IC50 [3] [nM] | IC50 (HCT-116; HCT-116 cell line, read-out: Cytotoxicity IC50) [nM] | IC50 (A2780; A2780 cell line, read-out: Cytotoxicity IC50) [nM] | IC50 (6-cell line panel; mean over 6-cell line panel) [µg/mL]
COc1cc2c(c3oc4c(O)cccc4c(=O)c13)C[C@H]([C@@]1(C)CO1)O2 [psorospermin] | significant activity | significant activity | – | – | – | – | – | – | – | – | – | –
O=c1c2c(O)cccc2oc2ccc3c(c12)CC(C(O)(CO)CCl)O3 (centres unmarked) [Example 1, 3′,4′-deoxy-4′ chloropsoroxanthin-3′,5′-diol] | – | – | 68 | SOS-active | 42 | 0.2 to 4 (≈ 0.551 to 11 µM) | 2000 | showed selectivity against bovine endothelial cells (ABAE) | 4 | – | – | –
O=c1c2c(O)cccc2oc2ccc3c(c12)CC(C1(CO)CO1)O3 (centres unmarked) [Example 4, Psoroxanthin] | – | – | – | highly potent SOS-active | – | – | – | – | 102 | 1000 | 330 | 0.2 to 4 (≈ 0.613 to 12.3 µM)
